Source: publication PMC12582325 (Proceedings of the National Academy of Sciences of the …, 2025)
Values joined by “and” are separate entries in the source; they are usually repeats but may differ in a detail not shown here. Equal values may be shown once. “Also recorded” adds a separate entry of the source. Read-outs that look alike come from different tables or passages of the source. Where a SMILES comes first, the peptide text is derived from it.

What was measured:
Ca.Ste2 = assay type: cell-based, Candida albicans
Bc.Ste2 [1] = assay type: cell-based, Botrytis cinerea; conditions: YPL1 library cocultured with Bc.Ste2 strain GEN89, 20 h, 2 d diploid enrichment, NextSeq 500
[2] = tested on: F. oxysporum microconidia; assay: Germination of F. oxysporum microconidia; assay type: cell-based, Fusarium oxysporum f. sp. lycopersici 4287; design: Germination of F. oxysporum microconidia (data of Sup.Fig.10): unit not given here; conditions: for Germination of F. oxysporum microconidia (data of Sup.Fig.10): 400 μM pheromone, 13 h, at least 300 spores counted
Procedure: For F. oxysporum microconidia production, the strain was grown for 3 to 4 d in liquid potato dextrose broth (PDB) at 28 °C and 170 rpm. Germination media ([10]) was used for assessing the spore germination. RE was prepared by removing 2-wk-old tomato plants from vermiculite and washing the roots to remove any adhering substrates ([11]).
Supplementary Figure 10. Germination of F. oxysporum microconidia after 13 h of incubation in Germination Media at a cell density of […] microconidia/mL. The assay was performed with 400 μM of pheromone. All points represent the average of three biological replicates in which at least 300 spores were counted. Statistical significance was determined through one-way analysis of variance (ANOVA) with Dunnett’s multiple comparisons (✱p ≤ 0.05).

Fg.Ste2 [3] = conditions: for barcode qPCR of diploids, Fg.Ste2 x pheromone strain: consortium, individual replicates (n=3), listed as Fo.Pheromone
Fg.Ste2 [4] = assay type: cell-based, Fusarium graminearum
B. bassiana = assay type: cell-based, Beauveria bassiana
Bb.Ste2 [5] = assay type: cell-based, Beauveria bassiana
[6] = tested on: F. oxysporum on tomato roots; assay: Tomato root inoculation and fluorescence microscopy of infected roots; assay type: in vivo, Fusarium oxysporum / Solanum lycopersicum; conditions: exogenous addition of pheromone to microconidia; 3 d after inoculation; fluorescence microscopy
Mo Ste2 GPCR = assay type: cell-based, Magnaporthe oryzae; conditions: Fig. 1D mating matrix; pheromone secreted by MATa strain, GPCR in MATα strain; deep well plate, 20 h coculture; three technical plating replicates
Bc.Ste2 [7] = assay type: cell-based, Botrytis cinerea
Fo.Ste2 [8] = assay type: cell-based, Fusarium oxysporum
Hj.Hpr2 = assay type: cell-based, Hypocrea jecorina
Bb.Ste2 [9] = assay type: cell-based, Beauveria bassiana; conditions: for Diploid frequency (%): 20 h coculture; for diploid frequency (%) / average (diploid colonies): GPCR strain GEN47 HIS; for average (diploid colonies): dilution 500, mean of Rep1-3
Hj Ste2 GPCR (Hj.Hpr2) = assay type: cell-based, Hypocrea jecorina
Bc.Ste2 [10] = assay type: cell-based, Botrytis cinerea; remark: listed apart in the source
Nc Ste2 GPCR = assay type: cell-based, Neurospora crassa
Fo.Ste2 [11] = assay: YeMaP Library-on-One: YPL1 pheromone library enrichment by mating, NGS; assay type: cell-based, Fusarium oxysporum; conditions: YPL1 library cocultured with Fo.Ste2 strain GEN90, 20 h, 2 d diploid enrichment, NextSeq 500
Bb.Ste2 [12] = assay type: cell-based, Beauveria bassiana; conditions: YPL1 library cocultured with Bb.Ste2 strain GEN88, 20 h, 2 d diploid enrichment, NextSeq 500

SMILES: C[C@@H](O)[C@H](NC(=O)[C@H](CS)NC(=O)[C@@H](N)Cc1c[nH]c2ccccc12)C(=O)N[C@@H](Cc1c[nH]c2ccccc12)C(=O)N[C@@H](CCCNC(=N)N)C(=O)NCC(=O)N[C@@H](CCC(N)=O)C(=O)N1CCC[C@H]1C(=O)N[C@@H](CS)C(=O)N[C@@H](Cc1c[nH]c2ccccc12)C(=O)O [Fo] (H-WCTWRGQPCW-OH; N-terminus assumed)
- Diploid frequency (%) (Ca.Ste2): 0.0%
- Enrichment after mating, reads per million minus library before coculture (Bc.Ste2 [1]): > 340,000 RPM
- Germination of F. oxysporum microconidia (data of Sup.Fig.10) ([2]; biological replicate 1 (first line)): 23,4
- Germination of F. oxysporum microconidia (data of Sup.Fig.10) ([2]; biological replicate 2 (second line)): 23,3
- Germination of F. oxysporum microconidia (data of Sup.Fig.10) ([2]; biological replicate 3 (third line)): 13,3
- Mean Diff, Solvent vs. peptide ([2]; Sup.Fig.10, Dunnett's multiple comparisons test, n = 3): 23,77
- Mean 2 (peptide), germination ([2]; Sup.Fig.10, Solvent control mean 43,77, mean of n = 3): 20,00
- Effect on F. oxysporum microconidia germination, in words ([2]; exogenous addition of 400 μM peptide, 13 h in Germination Media, 3.2 x 106 microconidia/mL): significant reduction
- barcode qPCR of diploids, Fg.Ste2 x pheromone strain (Fg.Ste2 [3]; SC-AS/Urea): 0.002 and 0.005 and 0.018
- barcode qPCR of diploids, Fg.Ste2 x pheromone strain (Fg.Ste2 [3]; SC): 0.005 (2×) and 0.013
- diploid barcode qPCR signal relative to control (2^-dCt) (Fg.Ste2 [3]; section A4, (GPCR strain) Fg, mean of Bio1-3): 0.118
- diploid barcode qPCR signal relative to control (2^-dCt) (Fg.Ste2 [3]; section A4, column Fg, replicate Bio1): 0.012
- diploid barcode qPCR signal relative to control (2^-dCt) (Fg.Ste2 [3]; section A4, column Fg, replicate Bio2): 0.1
- diploid barcode qPCR signal relative to control (2^-dCt) (Fg.Ste2 [3]; section A4, column Fg, replicate Bio3): 0.242
- diploid barcode qPCR signal relative to control (2^-dCt) (Fg.Ste2 [3]; section Cm, (GPCR strain) Fg, mean of Bio1-3): 0.038
- diploid barcode qPCR signal relative to control (2^-dCt) (Fg.Ste2 [3]; section Cm, column Fg, replicate Bio1): 0.014
- diploid barcode qPCR signal relative to control (2^-dCt) (Fg.Ste2 [3]; section Cm, column Fg, replicate Bio2): 0.066
- diploid barcode qPCR signal relative to control (2^-dCt) (Fg.Ste2 [3]; section Cm, column Fg, replicate Bio3): 0.033
- diploid barcode qPCR signal relative to control (2^-dCt) (Fg.Ste2 [3]; section SC, (GPCR strain) Fg, mean of Bio1-3): 0.0075
- diploid barcode qPCR signal relative to control (2^-dCt) (Fg.Ste2 [3]; section SC, column Fg, replicate Bio1): 0.005
- diploid barcode qPCR signal relative to control (2^-dCt) (Fg.Ste2 [3]; section SC, column Fg, replicate Bio2): 0.005
- diploid barcode qPCR signal relative to control (2^-dCt) (Fg.Ste2 [3]; section SC, column Fg, replicate Bio3): 0.013
- diploid barcode qPCR signal relative to control (2^-dCt) (Fg.Ste2 [3]; section Scramble, (GPCR strain) Fg, mean of Bio1-3): 0.0276
- diploid barcode qPCR signal relative to control (2^-dCt) (Fg.Ste2 [3]; section Scramble, column Fg, replicate Bio1): 0.025
- diploid barcode qPCR signal relative to control (2^-dCt) (Fg.Ste2 [3]; section Scramble, column Fg, replicate Bio2): 0.022
- diploid barcode qPCR signal relative to control (2^-dCt) (Fg.Ste2 [3]; section Scramble, column Fg, replicate Bio3): 0.036
- Fold change yEGFP (Fg.Ste2 [4]; Fg.Ste2 biosensor CPK366, 10 μM synthetic alpha pheromone, normalized to yEGFP background (receptor without pheromone), four biological replicates, Fig. 1E): 187
- Activation of Fg.Ste2 biosensor, in words (Fg.Ste2 [4]; chemically synthesized pheromone): higher EC50 values
- Chemotropism of spores, group mean (B. bassiana): 11.13
- chem. Index (B. bassiana): 14.29 and 11.03 and 8.06
- Chemotropic response in Bb germ tubes (B. bassiana; 20 hours): significant chemotropic response
- Activation of Bb.Ste2 biosensor, in words (Bb.Ste2 [5]): higher EC50 values
- EC50 fold higher than that of the Bb pheromone (Bb.Ste2 [5]): 3,910 fold
- Fold change yEGFP (Bb.Ste2 [5]): 178
- Hillslope (Bb.Ste2 [5]): 1.951
- half-maximal effective concentration (EC50) (Bb.Ste2 [5]): 958 nM
- logEC50 (Bb.Ste2 [5]): -6.019
- Adhesion of F. oxysporum germ tubes among themselves or to tomato roots [6]: increased adhesion
- Diploid frequency (%) (Mo Ste2 GPCR): 0.0%
- Fold change yEGFP (Bc.Ste2 [7]): 1
- Hillslope (Bc.Ste2 [7]): 0.5934
- logEC50 (Bc.Ste2 [7]): -8.991
- Sup.Fig.3A Bc.Ste2 biosensor response, group mean (Bc.Ste2 [7]; 10 μM): 1.713
- Sup.Fig.7A - Fo, group mean (Fo.Ste2 [8]): 0.3879 and 0.4515
- average (diploid colonies) (Fo.Ste2 [8]): 68 and 129.67 and 80.33
- diploid frequency (%) (Fo.Ste2 [8]): 19.26% and 31.27% and 21.99%
- diploid frequency (%), Plates, Fo (Fo.Ste2 [8]): 1.52% and 3.25% and 5.49%
- diploid frequency (%), Plates, Fo (Fo.Ste2 [8]; pH=6): 1.9% and 1.65% and 1.4%
- diploid frequency (%), Plates, Fo (Fo.Ste2 [8]; pH=7): 1.27% and 1.02% and 0.39%
- Sup.Fig.7A - Fo, group mean (Fo.Ste2 [8]; ph=6): 0.422
- Sup.Fig.7A - Fo, group mean (Fo.Ste2 [8]; ph=7): 0.4837
- barcode qPCR of diploids, Hj.HPR2 x pheromone strain (Hj.Hpr2): 0
- diploid barcode qPCR signal relative to control (2^-dCt) (Hj.Hpr2): 0
- Diploid frequency (%) (Bb.Ste2 [9]; Fig. 1D mating matrix, pheromone secreted by MATa strain, GPCR in MATα strain, deep well plate, three technical plating replicates): 0.7%
- Diploid frequency (%) (Bb.Ste2 [9]; Fig. 1F validation in culture tubes, secreted pheromone, three biological and three technical replicates): 4.9%
- diploid frequency (%) (Bb.Ste2 [9]; co-culture replicate 1): 4.61%
- average (diploid colonies) (Bb.Ste2 [9]; co-culture replicate 1): 22
- diploid frequency (%) (Bb.Ste2 [9]; co-culture replicate 2): 3.74%
- average (diploid colonies) (Bb.Ste2 [9]; co-culture replicate 2): 17.67
- diploid frequency (%) (Bb.Ste2 [9]; co-culture replicate 3): 6.44%
- average (diploid colonies) (Bb.Ste2 [9]; co-culture replicate 3): 31.33
- Diploid frequency (%) (Hj Ste2 GPCR (Hj.Hpr2)): 0.0%
- Effect on activation of Bc.Ste2 by Bc pheromone, in words (Bc.Ste2 [10]; 0.0005 μM Bc pheromone in combination with 10 μM peptide, four biological replicates, Fig. 2G): do not differ significantly from Bc alone; also recorded: no such effect
- Bc.Ste2 + pheromones, biosensor response, group mean (Bc.Ste2 [10]; Bc + the named peptide, Bc alone mean 134.8, mean of n = 4): 104.9
- Diploid frequency (%) (Nc Ste2 GPCR): 0.0%
- Enrichment after mating, reads per million minus library before coculture (Fo.Ste2 [11]): > 340,000 RPM
- Enrichment after mating, reads per million minus library before coculture (Bb.Ste2 [12]): > 340,000 RPM
